Measured values reported in US20140206737A1 (Beijing Zhongwei Shennong Chronic Disease Medical Research …, priority 2013, published 2014).
Where a name gives a salt, the structure may show the parent alone.

Columns and labels:
[1] = tested on: opioid dependent participants; assay: Treatment of heroin addiction: clinical rating of withdrawal symptoms; type: in vivo, human
Source text: (§1) 1.1. Subject selection criteria: 60 participants, in the range of 18-50 years of age, male or female, and opioid dependent as diagnosed according to the DSM-IV diagnostic criteria for opioid dependence.
Subject exclusion criteria: candidates with serious heart disease, liver or kidney dysfunction, mental illness, serious bodily weakness, or pregnant or lactating women were excluded.
(§2) 1.3. Grouping: 60 cases of participants were randomly divided into two groups according to the order of admission: the test group and the methadone control group.
(§3) The control group used methadone hydrochloride oral medication of 10 mg/10 ml each. Comparison method: according to the heroin-dependent self-restraining degree of 7-10 days, the treatment was designed to be 10 days long for both groups. […] The treatment concluded on day 10. Methadone control group was admitted 50-60 mg methadone on the first day; starting on day 2, the methadone dose was reduced by 10 mg per day each day; starting on day 6, the methadone dose was reduced by 2 mg per day each day. The treatment concluded on day 10. Supplementary drugs used in the two groups included normal doses of clonazepam tablets (clonazopam), alprazolam tablets (Alprazoli) once a day at night.
1.5.1. Clinical rating used indicators of withdrawal, which has 20 indicators including craving, anxiety, agitation, nausea, vomiting, hot face, chills, or alternating chills and fever, yawning, runny nose, tears, sweating, drowsiness, cutis anserina, tremors, bone and muscle pain, anorexia, abdominal pain, diarrhea, insomnia, and curled position. The rating was done daily on the day before the treatment and on each day during the treatment. The severity of withdrawal symptoms was scored as level 0-4 (five levels in total). Scoring for each participant was done at 9:00 am every day.
(§4) 1.6. Statistical analysis of the two groups: the general characteristics, withdrawal symptoms, and anxiety symptoms of the two groups, were statistically analyzed using the t test, chi-square test and Fisher's Exact Test, using suitable software such as SPSS 7.0. The t test was applied to the symptom data of the two groups, and chi-square test or Fisher's Exact Test was applied to the count data.

[2] = tested on: opioid dependent participants; assay: Treatment of heroin addiction: degree of anxiety by Hamilton Anxiety Scale (HAMA); type: in vivo, human; details: Day 5
Protocol: as §1, §2, §3
1.5.3. […]
1.6. Statistical analysis of the two groups: the general characteristics, withdrawal symptoms, and anxiety symptoms of the two groups, were statistically analyzed using the t test, chi-square test and Fisher's Exact Test, using suitable software such as SPSS 7.0. […]

[3] = tested on: opioid dependent participants; assay: Treatment of heroin addiction: adverse reactions and side effects; details: 10-day treatment
Protocol: as §1, §2, §3
1.5.2. Recordation of adverse reactions: adverse reactions were evaluated in the withdrawal symptom measurement table, using a total of 10 indicators that include: dizziness, syncope, malaise, nausea, vomiting, sweating, dry mouth, drowsiness, blurred vision, disturbance of consciousness. The recordation was done each morning at 9:00.
as §4

With `CCC(=O)C(CC(C)N(C)C)(c1ccccc1)c1ccccc1` (stereo not drawn) [Methadone, methadone hydrochloride] the “withdrawal symptoms (x ± s)” value ([1]; Before treatment, 20 indicators scored level 0-4, 30 per group) was 56.03 ± 1.80, the “withdrawal symptoms (x ± s)” value ([1]; Day 1 of treatment) was 5.01 ± 0.83 and the “withdrawal symptoms (x ± s)” value ([1]; Day 2 of treatment) was 27.78 ± 1.40. The “withdrawal symptoms (x ± s)” value ([1]; Day 3 of treatment) was 19.71 ± 1.13, the “withdrawal symptoms (x ± s)” value ([1]; Day 4 of treatment) was 13.54 ± 1.01 and the “withdrawal symptoms (x ± s)” value ([1]; Day 5 of treatment) was 8.27 ± 0.28. The “withdrawal symptoms (x ± s)” value ([1]; Day 6 of treatment) was 3.84 ± 0.06, the “withdrawal symptoms (x ± s)” value ([1]; Day 7 of treatment) was 3.26 ± 0.27 and the “withdrawal symptoms (x ± s)” value ([1]; Day 8 of treatment) was 3.84 ± 0.07. The “withdrawal symptoms (x ± s)” value ([1]; Day 9 of treatment) was 3.82 ± 0.18, the “withdrawal symptoms (x ± s)” value ([1]; Day 10 of treatment) was 4.80 ± 0.11 and the “emotional changes measured by HAMA (x ± s)” value [2] was 8.83 ± 0.45. The “Adverse Reactions: Abdominal pain” value ([3]; count, 30 per group) was 6, the “Adverse Reactions: Chills” value ([3]; count, 30 per group) was 7 and the “Adverse Reactions: Diarrhea” value ([3]; count, 30 per group) was 3. The “Adverse Reactions: Runny nose” value ([3]; count, 30 per group) was 8, the “Adverse Reactions: Tears” value ([3]; count, 30 per group) was 8 and the Side effects ([3]; heroin addiction study) was “dizziness, malaise, nausea, sweating and heart palpitations”.
